Series [1] deals with HSC-3. The experiment in a line: Selectivity index, ratio of CC50 for normal cells to CC50 for human HSC3 cells. In kind it is functional.
Series [2] has as its system HSC-2. The experiment in a line: Selectivity index, ratio of CC50 for normal cells to CC50 for human HSC2 cells. In kind it is functional.
Series [3] deals with HSC-2. Description: Induction of internucleosomal DNA fragmentation in human HSC2 cells after 6 hrs. In kind it is functional, cell-based.
The test system of series [4] is HSC-2. Description: Cytotoxicity against human HSC2 cells. In kind it is functional.
The subject of series [5] is HSC-4. Description: Selectivity index, ratio of CC50 for normal cells to CC50 for human HSC4 cells. Format: functional.
Series [6] deals with HL-60. The experiment in a line: Induction of internucleosomal DNA fragmentation in human HL60 cells after 6 hrs. Format: functional, cell-based.
Series [7] in a line: Cytotoxicity against human HPLF cells. Format: cell-based.
The test system of series [8] is HSC-4. Description: Induction of internucleosomal DNA fragmentation in human HSC4 cells after 6 hrs. In kind it is functional, cell-based.
In series [9] the test system is HSC-4. The experiment in a line: Cytotoxicity against human HSC4 cells. Format: functional.
Series [10] in a line: Cytotoxicity against human HGF cells. In kind it is cell-based.
The test system of series [11] is HL-60. The experiment in a line: Selectivity index, ratio of CC50 for normal cells to CC50 for human HL60 cells. In kind it is functional.
Series [12] concerns HL-60. The experiment in a line: Cytotoxicity against human HL60 cells. Format: functional.
In series [13] the test system is HL-60. Description: Induction of apoptosis in human HL60 cells assessed as activation of caspase 3 after 6 hrs. Format: functional, cell-based.
Series [14] has as its system HSC-3. The experiment in a line: Cytotoxicity against human HSC3 cells. Format: functional.
Series [15] can be described thus: Cytotoxicity against human HPC cells. Format: cell-based.
Series [16] relates to HSC-2. The experiment in a line: Induction of apoptosis in human HSC2 cells assessed as activation of caspase 3 after 6 hrs. In kind it is functional, cell-based.

Activity calls are given as the source filed them. The rule behind the calls is not given here.

Here are results for one compound from ChEMBL document CHEMBL1268945, “Sequential cytotoxicity: a theory examined using a series of 3,5-bis(benzylidene)-1-diethylphosphono-4-oxopiperidines and related phosphonic acids” (Bioorg Med Chem Lett, 2010).

On to `CCOP(=O)(OCC)N1C/C(=C\c2ccc(OC)cc2)C(=O)/C(=C/c2ccc(OC)cc2)C1`, for which the “Selectivity Index” value in the series with HSC-3 [1] worked out at 71; in the series with HSC-2 [2], 51; in the series on HSC-4 [5] it was 36; in the series with HL-60 [11] it was 25. Moreover, the outcome with HSC-2 [3], with HSC-4 [8] and in the series on HSC-2 [16] was inactive. Further, the CC50 (in general, the concentration giving 50% cytotoxicity) stood at 0.92 µM with HSC-2 [4]; 46 µM in [7]; 1.3 µM with HSC-4 [9]; 53 µM in [10]; 1.9 µM with HL-60 [12]; 0.66 µM in the series on HSC-3 [14]. In addition, half-maximal cytotoxicity in [15] (CC50) was put at 41 µM. For the same compound, the result with HL-60 [6] was Active. Besides, the Activity result in the series with HL-60 [13] was “Dose-dependent effect”.
